We go through 22 molecules from patent US10669289B2, “Boronic acid derivatives” (MERCK PATENT GMBH, priority 2014, dated 2020).

In experiment [1] the target is human constitutive proteasome (Beta5) (Homo sapiens (Human), UniProt P28074). Briefly: Determination of Beta5 activity (fluorescence intensity assay, Suc-LLVY-AMC). It is filed as biochemical. The method, then:
Determination of Beta5 Activity:
Measurement of Beta5 inhibition is performed in 384 well format based on fluorescence intensity assay.
(§1) Purified human constitutive proteasome (1.25 nM) and serial diluted compounds in DMSO (range of concentrations from 30 μM to 15 pM) or controls are incubated for 20 minutes or 120 minutes (long incubation) at 25° C. in assay buffer containing 50 mM Tris pH 7.4, 0.03% SDS, 1 mM EDTA and 1% DMSO. The reaction is initiated by the addition of the fluorogenic peptide substrate, Suc-LLVY-AMC (Bachem 1-1395), at a concentration of 40 μM. After 60 minutes of incubation at 37° C., fluorescence intensity is measured at λex=350 nm and λem=450 nm with a fluorescence reader (Perkin Elmer Envision reader or equivalent).
(§2) Unless indicated otherwise the results are obtained after incubation for 20 minutes.

Experiment [2] concerns the target human immuno proteasome (LMP7) (Homo sapiens (Human), UniProt P28062). Description: Determination of LMP7 activity (fluorescence intensity assay, Suc-LLVY-AMC). It is filed as biochemical. The method, then: Determination of LMP7 Activity:
Measurement of LMP7 inhibition is performed in 384 well format based on fluorescence intensity assay.
as §1, with “immuno” for “constitutive”, “(0.25” for “(1.25”
as §2

[3] abbreviates: LMP7 versus Beta5, incubation for 20 minutes.
[4] abbreviates: LMP7 versus Beta5, long incubation (120 min).

For the molecule `C=CC(=O)N(CC)CC(=O)N[C@@H](Cc1ccccc1)B(O)O` [Compound No. 37, [(1R)-1-[[2-[ethyl(prop-2-enoyl)amino]acetyl]amino]-2-phenyl-ethyl]boronic Acid], the IC50 was greater than 5000 nM in experiment [1] (incubation for 20 minutes) and 50 to 500 nM in experiment [2] (incubation for 20 minutes). In experiment [2] (setting [3]), the “Selectivity LMP7 vs Beta5” value was “+++ (70 ≤ 100)”.
On the same counts, the results for `C=CC(=O)N(CC(=O)N[C@@H](Cc1ccc(C)cc1C)B(O)O)c1cccc(F)c1` [Compound No. 4, [(1R)-2-(2,4-dimethylphenyl)-1-[[2-(3-fluoro-N-prop-2-enoyl-anilino)acetyl]amino]ethyl]boronic Acid] are 500 to 5000 nM, less than 50 nM and “+++++ (Selectivity ≥ 150)”.
Regarding `C=CC(=O)N(C)[C@@H](C)C(=O)N[C@@H](Cc1ccc(C)c(C)c1)B(O)O` [Compound No. 68, [(1R)-2-(3,4-dimethylphenyl)-1-[[(2S)-2-[methyl(prop-2-enoyl)amino]propanoyl]amino]ethyl]boronic Acid], the IC50 in experiment [1] (long incubation (120 min)) was greater than 5000 nM; in experiment [2] (long incubation (120 min)), 50 to 500 nM. In addition, in experiment [2] (setting [4]), the “Selectivity LMP7 vs Beta5” value is listed as “+++++ (Selectivity ≥ 150)”.
On the same counts, the results for `CCN(CC(=O)N[C@@H](Cc1ccc(C)cc1C)B(O)O)C(=O)/C=C/C(=O)OC` [Compound No. 50, [(1R)-2-(2,4-dimethylphenyl)-1-[[2-[ethyl-[(E)-4-methoxy-4-oxo-but-2-enoyl]amino]acetyl]amino]ethyl]boronic Acid] are greater than 5000 nM, less than 50 nM and “+++++ (Selectivity ≥ 150)”.
On the same counts, the results for `CCN(CC(=O)N[C@@H](Cc1ccc(C)cc1C)B(O)O)C(=O)/C=C/C(=O)N(C)C` [Compound No. 62, [(1R)-1-[[2-[[(E)-4-(dimethylamino)-4-oxo-but-2-enoyl]-ethyl-amino]acetyl]amino]-2-(2,4-dimethylphenyl)ethyl]boronic Acid] are greater than 5000 nM, 50 to 500 nM and “+++++ (Selectivity ≥ 150)”.
On the same counts, the results for `C=CC(=O)N(CC(=O)N[C@@H](Cc1ccsc1)B(O)O)c1cccc(CC)c1` [Compound No. 94, [(1R)-1-[[2-(3-ethyl-N-prop-2-enoyl-anilino)acetyl]amino]-2-(3-thienyl)ethyl]boronic Acid] are greater than 5000 nM, less than 50 nM and “+++++ (Selectivity ≥ 150)”.
In the case of `C=CC(=O)N(CC(=O)N[C@@H](Cc1ccsc1)B(O)O)c1ccccc1` [Compound No. 92, [(1R)-1-[[2-(N-prop-2-enoylanilino)acetyl]amino]-2-(3-thienyl)ethyl]boronic Acid], the results for the IC50 in experiment [1] (long incubation (120 min)) and in experiment [2] (long incubation (120 min)) were greater than 5000 nM and less than 50 nM, respectively. For the same molecule, in experiment [2] (setting [4]), the “Selectivity LMP7 vs Beta5” value is given as “+++++ (Selectivity ≥ 150)”.
As to `CC#CC(=O)N(CC)CC(=O)N[C@@H](Cc1ccc(C)cc1C)B(O)O` [Compound No. 19, [(1R)-1-[[2-[but-2-ynoyl(ethyl)amino]acetyl]amino]-2-(2,4-dimethylphenyl)ethyl]boronic Acid], the values for the IC50 in experiment [1] (incubation for 20 minutes) and in experiment [2] (incubation for 20 minutes) were 500 to 5000 nM and less than 50 nM, respectively. Further, the “Selectivity LMP7 vs Beta5” value in experiment [2] (setting [3]) is on record as “+++ (70 ≤ 100)”.
Consider `C=CC(=O)N(C)[C@@H](C)C(=O)N[C@@H](Cc1ccc(C)cc1C)B(O)O` [Compound No. 49, [(1R)-2-(2,4-dimethylphenyl)-1-[[(2S)-2-[methyl(prop-2-enoyl)amino]propanoyl]amino]ethyl]boronic Acid], for which the IC50 in experiment [1] (long incubation (120 min)) was greater than 5000 nM; in experiment [2] (long incubation (120 min)) it was 50 to 500 nM. For the same molecule, the “Selectivity LMP7 vs Beta5” value in experiment [2] (setting [4]) is “++++ (100 ≤ Selectivity < 150)”.
On the same counts, the results for `C=CC(=O)N(CC(=O)N[C@@H](Cc1ccsc1)B(O)O)c1ccccc1F` [Compound No. 78, [(1R)-1-[[2-(2-fluoro-N-prop-2-enoyl-anilino)acetyl]amino]-2-(3-thienyl)ethyl]boronic Acid] are greater than 5000 nM, less than 50 nM and “+++++ (Selectivity ≥ 150)”.
On to `C=CC(=O)N(C)CC(=O)N[C@@H](Cc1ccc(Cl)cc1Cl)B(O)O` [Compound No. 85, [(1R)-2-(2,4-dichlorophenyl)-1-[[2-[methyl(prop-2-enoyl)amino]acetyl]amino]ethyl]boronic Acid], for which the IC50 in experiment [1] (long incubation (120 min)) was greater than 5000 nM; in experiment [2] (long incubation (120 min)), less than 50 nM. In experiment [2] (setting [4]), the “Selectivity LMP7 vs Beta5” value is on record as “+++++ (Selectivity ≥ 150)”.
Take `C#CC(=O)N(CC)CC(=O)N[C@@H](Cc1ccc(C)cc1C)B(O)O` [Compound No. 12, [(1R)-2-(2,4-dimethylphenyl)-1-[[2-[ethyl(prop-2-ynoyl)amino]acetyl]-amino]ethyl]boronic Acid]: the IC50 in experiment [1] (incubation for 20 minutes) is 500 to 5000 nM; in experiment [2] (incubation for 20 minutes) it was less than 50 nM. In addition, in experiment [2] (setting [3]), the “Selectivity LMP7 vs Beta5” value is given as “++++ (100 ≤ Selectivity < 150)”.
`C=CC(=O)N(CC(=O)N[C@@H](Cc1ccsc1)B(O)O)C1CC1` [Compound No. 90, [(1R)-1-[[2-[cyclopropyl(prop-2-enoyl)amino]acetyl]amino]-2-(3-thienyl)ethyl]boronic Acid]: the IC50 was greater than 5000 nM in experiment [1] (long incubation (120 min)) and less than 50 nM in experiment [2] (long incubation (120 min)). Further, the “Selectivity LMP7 vs Beta5” value in experiment [2] (setting [4]) is on record as “+++++ (Selectivity ≥ 150)”.
On the same counts, the results for `C=CC(=O)N(CC(=O)N[C@@H](Cc1ccc(C)cc1C)B(O)O)c1cccc(F)c1F` [Compound No. 41, [(1R)-1-[[2-(2,3-difluoro-N-prop-2-enoyl-anilino)acetyl]amino]-2-(2,4-dimethylphenyl)ethyl]boronic Acid] are greater than 5000 nM, less than 50 nM and “+++++ (Selectivity ≥ 150)”.
As for `C/C=C(/C)C(=O)N(CC)CC(=O)N[C@@H](Cc1ccc(C)cc1C)B(O)O` [Compound No. 21, [(1R)-2-(2,4-dimethylphenyl)-1-[[2-[ethyl-[(Z)-2-methylbut-2-enoyl]amino]acetyl]amino]ethyl]boronic Acid], the IC50 is greater than 5000 nM in experiment [1] (incubation for 20 minutes) and 50 to 500 nM in experiment [2] (incubation for 20 minutes). For the same molecule, the “Selectivity LMP7 vs Beta5” value in experiment [2] (setting [3]) is “++ (50 ≤ Selectivity < 70)”.
`C=CC(=O)N(CC)CC(=O)N[C@H](Cc1ccsc1)B(O)O` [Compound No. 76, [(1S)-1-[[2-[ethyl(prop-2-enoyl)amino]acetyl]amino]-2-(3-thienyl)ethyl]boronic Acid]: the IC50 in experiment [1] (long incubation (120 min)) is greater than 5000 nM; in experiment [2] (long incubation (120 min)), 500 to 5000 nM. The “Selectivity LMP7 vs Beta5” value in experiment [2] (setting [4]) is “+ (Selectivity < 50)”.
`C=CC(=O)N(CC(=O)N[C@@H](Cc1ccccc1)B(O)O)C(C)C` [Compound No. 35, [(1R)-1-[[2-[isopropyl(prop-2-enoyl)amino]acetyl]amino]-2-phenyl-ethyl]boronic Acid]: the IC50 was greater than 5000 nM in experiment [1] (incubation for 20 minutes) and 50 to 500 nM in experiment [2] (incubation for 20 minutes). Further, the “Selectivity LMP7 vs Beta5” value in experiment [2] (setting [3]) is “+ (Selectivity < 50)”.
Turning to `C=CC(=O)N(CC(=O)N[C@@H](Cc1ccc(C)cc1C)B(O)O)CC(F)F` [Compound No. 84, [(1R)-1-[[2-[2,2-difluoroethyl(prop-2-enoyl)amino]acetyl]-amino]-2-(2,4-dimethylphenyl)ethyl]boronic Acid], the IC50 was greater than 5000 nM in experiment [1] (long incubation (120 min)) and 50 to 500 nM in experiment [2] (long incubation (120 min)). In addition, in experiment [2] (setting [4]), the “Selectivity LMP7 vs Beta5” value was “+++++ (Selectivity ≥ 150)”.
On to `C=CC(=O)N(CC)CC(=O)N[C@@H](Cc1ccc(C)cc1C)B(O)O` [Compound No. 34, [(1R)-2-(2,4-dimethylphenyl)-1-[[2-[ethyl(prop-2-enoyl)amino]acetyl]-amino]ethyl]boronic Acid], for which the IC50 in experiment [1] (incubation for 20 minutes) was greater than 5000 nM; in experiment [2] (incubation for 20 minutes), 50 to 500 nM. Further, the “Selectivity LMP7 vs Beta5” value in experiment [2] (setting [3]) is “++++ (100 ≤ Selectivity < 150)”.
Regarding `CCN(CC(=O)N[C@@H](Cc1ccc(C)cc1C)B(O)O)C(=O)/C=C/CN(C)C` [Compound No. 105, [(1R)-1-[[2-[[(E)-4-(dimethylamino)but-2-enoyl]-ethyl-amino]-acetyl]amino]-2-(2,4-dimethylphenyl)ethyl]boronic Acid], the IC50 is greater than 5000 nM in experiment [1] (long incubation (120 min)) and less than 50 nM in experiment [2] (long incubation (120 min)). Besides, in experiment [2] (setting [4]), the “Selectivity LMP7 vs Beta5” value was “+++++ (Selectivity ≥ 150)”.
On the same counts, the results for `C=CC(=O)N(CC(=O)N[C@@H](Cc1cccs1)B(O)O)c1ccc(Br)cc1` [Compound No. 104, [(1R)-1-[[2-(4-bromo-N-prop-2-enoyl-anilino)acetyl]amino]-2-(2-thienyl)ethyl]boronic Acid] are 500 to 5000 nM, less than 50 nM and “+++++ (Selectivity ≥ 150)”.
On the same counts, the results for `C=CC(=O)N(CC)CC(=O)N[C@@H](Cc1ccc(Cl)cc1Cl)B(O)O` [Compound No. 40, [(1R)-2-(2,4-dichlorophenyl)-1-[[2-[ethyl(prop-2-enoyl)amino]acetyl]amino]ethyl]boronic Acid] are greater than 5000 nM, 50 to 500 nM and “+++++ (Selectivity ≥ 150)”.
